26 molecules from US9549932B2, “2-(morpholin-4-yl)-1,7-naphthyridines” (BAYER PHARMA AKTIENGESELLSCHAFT, priority 2014, dated 2017) can be followed below.

SMILES strings stand for the structures. Structures can show the parent of a compound that is named as a salt. Where two headings read alike, the source gives them in different places.

The target in the assay is full-length human ATR protein (Homo sapiens (Human), UniProt Q13535). As to the kind of experiment: Binding assay ATR (TR-FRET tracer displacement). The settings on record: TR-FRET. An excerpt: To determine of binding activity of the test compounds, full-length human ATR protein was expressed and purified together with ATRIP as described above. Furthermore, a fluorescently labelled compound (either tracer A or B as described above) was used as a tracer molecule. Detection of the binding event of the tracer was achieved by time-resolved fluorescence energy transfer (TR-FRET). We used an anti-GST-Terbium antibody (CisBio) that binds to the GST-tag at the N-terminus of ATR-kinase. […] Displacement of the fluorescent tracer by a test compound leads to a reduction of the TR-FRET-signal.
Sequence of full-length human ATR protein (Q13535 other isoform, or with tags, fused parts or gaps): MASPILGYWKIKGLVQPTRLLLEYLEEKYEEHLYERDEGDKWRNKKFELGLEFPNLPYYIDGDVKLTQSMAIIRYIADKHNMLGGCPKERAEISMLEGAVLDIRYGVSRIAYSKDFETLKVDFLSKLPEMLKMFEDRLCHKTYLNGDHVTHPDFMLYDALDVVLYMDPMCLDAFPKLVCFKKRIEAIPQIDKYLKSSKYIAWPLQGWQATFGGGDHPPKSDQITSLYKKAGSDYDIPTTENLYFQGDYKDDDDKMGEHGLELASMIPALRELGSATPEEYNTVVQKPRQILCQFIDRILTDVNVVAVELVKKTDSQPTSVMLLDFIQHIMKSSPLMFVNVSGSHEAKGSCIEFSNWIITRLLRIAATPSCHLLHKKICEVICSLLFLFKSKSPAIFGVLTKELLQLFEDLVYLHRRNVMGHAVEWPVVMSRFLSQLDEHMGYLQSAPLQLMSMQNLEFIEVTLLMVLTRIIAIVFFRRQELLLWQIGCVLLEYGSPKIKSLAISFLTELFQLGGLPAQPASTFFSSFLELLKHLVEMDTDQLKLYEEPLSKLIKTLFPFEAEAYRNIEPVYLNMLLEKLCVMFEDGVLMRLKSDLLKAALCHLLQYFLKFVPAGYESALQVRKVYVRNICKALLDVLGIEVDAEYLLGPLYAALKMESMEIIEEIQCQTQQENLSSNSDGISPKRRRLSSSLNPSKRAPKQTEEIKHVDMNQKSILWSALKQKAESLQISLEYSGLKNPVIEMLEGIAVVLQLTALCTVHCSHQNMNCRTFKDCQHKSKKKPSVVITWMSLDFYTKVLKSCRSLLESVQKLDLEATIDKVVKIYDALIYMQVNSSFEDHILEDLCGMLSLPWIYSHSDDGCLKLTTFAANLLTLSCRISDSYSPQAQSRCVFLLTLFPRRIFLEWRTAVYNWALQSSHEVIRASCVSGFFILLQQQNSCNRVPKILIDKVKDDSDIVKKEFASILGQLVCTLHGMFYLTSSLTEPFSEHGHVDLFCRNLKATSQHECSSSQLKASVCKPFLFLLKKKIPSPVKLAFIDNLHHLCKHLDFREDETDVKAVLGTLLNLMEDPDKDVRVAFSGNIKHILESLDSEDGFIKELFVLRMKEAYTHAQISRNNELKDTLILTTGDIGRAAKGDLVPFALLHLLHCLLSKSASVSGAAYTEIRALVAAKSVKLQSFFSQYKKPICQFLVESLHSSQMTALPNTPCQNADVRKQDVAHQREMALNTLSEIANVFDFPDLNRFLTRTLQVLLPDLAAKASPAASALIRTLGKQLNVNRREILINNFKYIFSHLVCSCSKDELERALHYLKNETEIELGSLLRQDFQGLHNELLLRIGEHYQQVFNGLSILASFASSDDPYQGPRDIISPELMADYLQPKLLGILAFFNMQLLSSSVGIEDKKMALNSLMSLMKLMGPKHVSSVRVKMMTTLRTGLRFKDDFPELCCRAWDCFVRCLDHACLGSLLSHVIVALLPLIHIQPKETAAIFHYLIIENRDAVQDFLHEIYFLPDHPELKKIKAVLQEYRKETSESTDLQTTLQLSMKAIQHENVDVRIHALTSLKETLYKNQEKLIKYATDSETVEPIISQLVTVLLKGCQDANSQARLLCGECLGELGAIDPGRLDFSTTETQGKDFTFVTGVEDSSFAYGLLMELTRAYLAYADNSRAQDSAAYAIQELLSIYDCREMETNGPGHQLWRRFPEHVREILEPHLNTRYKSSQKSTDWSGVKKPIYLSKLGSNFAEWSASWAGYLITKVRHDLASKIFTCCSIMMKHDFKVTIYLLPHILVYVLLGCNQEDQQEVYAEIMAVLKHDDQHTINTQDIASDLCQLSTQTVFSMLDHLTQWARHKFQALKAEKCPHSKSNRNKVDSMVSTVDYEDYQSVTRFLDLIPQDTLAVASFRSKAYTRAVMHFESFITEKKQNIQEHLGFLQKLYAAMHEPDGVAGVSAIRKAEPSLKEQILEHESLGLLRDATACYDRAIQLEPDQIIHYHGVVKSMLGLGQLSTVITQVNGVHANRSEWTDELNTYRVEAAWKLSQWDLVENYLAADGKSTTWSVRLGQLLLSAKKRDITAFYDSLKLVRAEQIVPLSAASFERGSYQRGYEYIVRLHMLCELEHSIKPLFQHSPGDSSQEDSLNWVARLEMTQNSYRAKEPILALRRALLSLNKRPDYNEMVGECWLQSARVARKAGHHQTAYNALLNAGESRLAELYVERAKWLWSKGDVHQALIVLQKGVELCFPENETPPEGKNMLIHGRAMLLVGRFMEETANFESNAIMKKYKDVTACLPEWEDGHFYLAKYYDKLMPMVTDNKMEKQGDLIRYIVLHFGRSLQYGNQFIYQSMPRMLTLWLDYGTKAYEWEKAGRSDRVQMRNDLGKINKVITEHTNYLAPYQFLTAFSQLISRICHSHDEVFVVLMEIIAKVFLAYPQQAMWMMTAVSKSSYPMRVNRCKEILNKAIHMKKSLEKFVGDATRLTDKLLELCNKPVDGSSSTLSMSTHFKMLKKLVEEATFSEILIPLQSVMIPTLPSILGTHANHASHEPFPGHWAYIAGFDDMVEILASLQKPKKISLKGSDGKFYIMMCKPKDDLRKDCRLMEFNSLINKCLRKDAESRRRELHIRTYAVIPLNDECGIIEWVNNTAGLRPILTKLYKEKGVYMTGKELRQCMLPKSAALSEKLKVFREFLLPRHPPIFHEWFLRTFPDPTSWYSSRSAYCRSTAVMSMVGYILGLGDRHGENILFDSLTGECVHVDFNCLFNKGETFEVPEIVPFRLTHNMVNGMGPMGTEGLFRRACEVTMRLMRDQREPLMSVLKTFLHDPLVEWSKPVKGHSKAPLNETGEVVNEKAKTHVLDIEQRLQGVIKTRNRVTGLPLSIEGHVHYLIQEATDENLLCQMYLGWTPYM
Sequence of full-length human ATR protein (Q8WXE1 other isoform, or with tags, fused parts or gaps partner): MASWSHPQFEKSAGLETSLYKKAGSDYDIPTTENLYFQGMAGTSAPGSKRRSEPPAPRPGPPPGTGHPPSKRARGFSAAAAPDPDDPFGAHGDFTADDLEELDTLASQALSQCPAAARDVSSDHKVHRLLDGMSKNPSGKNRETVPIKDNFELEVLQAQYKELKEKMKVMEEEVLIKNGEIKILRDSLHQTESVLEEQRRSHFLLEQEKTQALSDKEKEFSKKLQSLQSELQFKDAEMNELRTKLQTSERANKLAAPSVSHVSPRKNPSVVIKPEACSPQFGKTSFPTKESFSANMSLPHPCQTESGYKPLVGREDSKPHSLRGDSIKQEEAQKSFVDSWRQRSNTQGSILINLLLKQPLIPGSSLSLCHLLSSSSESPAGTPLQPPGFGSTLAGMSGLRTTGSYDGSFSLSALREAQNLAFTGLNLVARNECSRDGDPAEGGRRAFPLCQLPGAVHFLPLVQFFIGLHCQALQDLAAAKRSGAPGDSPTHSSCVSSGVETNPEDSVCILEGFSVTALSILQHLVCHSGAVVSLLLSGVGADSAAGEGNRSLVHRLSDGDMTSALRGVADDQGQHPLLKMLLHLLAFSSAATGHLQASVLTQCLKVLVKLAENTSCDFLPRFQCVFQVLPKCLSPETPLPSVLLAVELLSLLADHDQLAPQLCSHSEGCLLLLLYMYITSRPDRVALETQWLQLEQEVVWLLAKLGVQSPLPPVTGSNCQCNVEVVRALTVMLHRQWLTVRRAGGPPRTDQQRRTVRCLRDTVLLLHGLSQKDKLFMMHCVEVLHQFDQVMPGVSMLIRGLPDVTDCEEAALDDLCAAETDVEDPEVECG
For the assay 50 nl of a 100-fold concentrated solution of the test compound in DMSO was pipetted into a black low volume 384well microtiter plate (MTP, Greiner Bio-One, Frickenhausen, Germany). […] The ATR-working solution was incubated for 30 min at 22° C. prior to dispensing to pre-form the complex of antiGST-Tb+GST-ATR+ATRIP. Then, 3 μl of the ATR-working solution were added to the test compound and the mixture was incubated for 10 min at 22° C. to allow pre-binding of the test compounds to ATR/ATRIP. Then, 2 μl of a 100 nM solution of either tracer A or B in assay buffer were added to the ATR-working solution. The resulting mixture was incubated for 30 min at 22° C. […] The dilution series were prepared separately before the assay on the level of the 100 fold concentrated solutions in DMSO by serial 1:3.4 dilutions in duplicate values for each concentration. IC50 values were calculated by a 4 parameter fit using standard software (GraphPad prism or equivalent).
(Time-resolved FRET reads energy transfer from a long-lived donor to a nearby acceptor.)

[1] abbreviates: tracer A, read-out: ATR binding (tracer A) IC50.
The mark [2] stands for this setting: tracer B, read-out: ATR binding (tracer B) IC50.

One may read the IC50 as the concentration at which inhibition is half-maximal. On to `Cn1nccc1-c1cc(N2CCOCC2)nc2c(-c3ccn[nH]3)nccc12` [Example 348, 4-(1-methyl-1H-pyrazol-5-yl)-2-(morpholin-4-yl)-8-(1H-pyrazol-5-yl)-1,7-naphthyridine], for which the IC50 under setting [1] was determined as 55.3 nM.

For the molecule `Cc1ccsc1-c1cc(N2CCOC[C@H]2C)nc2c(-c3ccn[nH]3)nccc12` [Example 99, 2-[(3R)-3-methylmorpholin-4-yl]-4-(3-methyl-2-thienyl)-8-(1H-pyrazol-5-yl)-1,7-naphthyridine], the IC50 under setting [1] is 6.38 nM. In the case of `C[C@@H]1COCCN1c1cc(OCCNC(=O)OC(C)(C)C)c2ccnc(-c3ccn[nH]3)c2n1` [Example 56, Tert-butyl [2-({2-[(3R)-3-methylmorpholin-4-yl]-8-(1H-pyrazol-5-yl)-1,7-naphthyridin-4-yl}oxy)ethyl]carbamate], the IC50 was found to be 751 nM under setting [1] and 324 nM under setting [2]. As to `CSc1cncc(-c2cc(N3CCOCC3)nc3c(-c4ccn[nH]4)nccc23)c1` [Example 400, 4-[5-(methylsulfanyl)pyridin-3-yl]-2-(morpholin-4-yl)-8-(1H-pyrazol-5-yl)-1,7-naphthyridine], the IC50 under setting [1] was 300 nM. Consider `C[C@@H]1COCCN1c1cc(-c2cccc(F)n2)c2ccnc(-c3ccn[nH]3)c2n1` [Example 152, 4-(6-fluoropyridin-2-yl)-2-[(3R)-3-methylmorpholin-4-yl]-8-(1H-pyrazol-5-yl)-1,7-naphthyridine], for which the IC50 under setting [1] came to 51.8 nM. Consider `CC(C)(C)n1cc(-c2cc(N3CCOCC3)nc3c(-c4ccn[nH]4)nccc23)cn1` [Example 407, 4-(1-tert-butyl-1H-pyrazol-4-yl)-2-(morpholin-4-yl)-8-(1H-pyrazol-5-yl)-1,7-naphthyridine], for which the IC50 under setting [1] was 309 nM.

Take `FC(F)(F)c1ccc(-c2cc(N3CCOCC3)nc3c(-c4ccn[nH]4)nccc23)cc1` [Example 302, 2-(morpholin-4-yl)-8-(1H-pyrazol-5-yl)-4-[4-(trifluoromethyl)phenyl]-1,7-naphthyridine]: the IC50 under setting [1] turned out to be 188 nM. `C1=C(c2cc(N3CCOCC3)nc3c(-c4cc[nH]n4)nccc23)CCOC1` [Example 4, 4-(3,6-dihydro-2H-pyran-4-yl)-2-(morpholin-4-yl)-8-(1H-pyrazol-3-yl)-[1,7]naphthyridine]: the IC50 under setting [1] came to 61.7 nM and the IC50 under setting [2] was determined as 43.5 nM. Turning to `Cc1nn(C)c(C)c1-c1cc(N2CCOCC2)nc2c(-c3ccn[nH]3)nccc12` [Example 273, 2-(morpholin-4-yl)-8-(1H-pyrazol-5-yl)-4-(1,3,5-trimethyl-1H-pyrazol-4-yl)-1,7-naphthyridine], the IC50 under setting [1] is 14 nM. As to `c1ccc2c(c1)CCCN2c1cc(N2CCOCC2)nc2c(-c3ccn[nH]3)nccc12` [Example 418, 4-(3,4-dihydroquinolin-1(2H)-yl)-2-(morpholin-4-yl)-8-(1H-pyrazol-5-yl)-1,7-naphthyridine], the IC50 under setting [1] stood at 94.1 nM. In the case of `CS(=O)(=O)c1ccccc1-c1cc(N2CCOCC2)nc2c(-c3cc[nH]n3)nccc12` [Example 8, 4-(2-methanesulphonylphenyl)-2-(morpholin-4-yl)-8-(1H-pyrazol-3-yl)-[1,7]naphthyridine hydrochloride], the IC50 under setting [1] amounted to 118 nM and the IC50 under setting [2] is 69.2 nM. As to `Cc1cncc(-c2cc(N3CCOCC3)nc3c(-c4ccn[nH]4)nccc23)c1` [Example 352, 4-(5-methylpyridin-3-yl)-2-(morpholin-4-yl)-8-(1H-pyrazol-5-yl)-1,7-naphthyridine], the IC50 under setting [1] was found to be 175 nM. Turning to `CC(C)Oc1cc(N2CCOC[C@H]2C)nc2c(-c3cc[nH]n3)nccc12` [Example 51, 4-isopropoxy-2-((R)-3-methylmorpholin-4-yl)-8-(1H-pyrazol-3-yl)-[1,7]naphthyridine], the IC50 turned out to be 38 nM under setting [1] and 23.3 nM under setting [2]. With `C[C@@H]1COCCN1c1cc(-c2cnc3n2CCC3)c2ccnc(-c3ccn[nH]3)c2n1` [Example 118, 4-(6,7-dihydro-5H-pyrrolo[1,2-a]imidazol-3-yl)-2-[(3R)-3-methylmorpholin-4-yl]-8-(1H-pyrazol-5-yl)-1,7-naphthyridine], the IC50 under setting [1] was 10.1 nM. In the case of `C[C@@H]1COCCN1c1cc(N2CCNCC2)c2ccnc(-c3ccn[nH]3)c2n1` [Example 66, 2-[(3R)-3-methylmorpholin-4-yl]-4-(piperazin-1-yl)-8-(1H-pyrazol-5-yl)-1,7-naphthyridine], the IC50 under setting [1] was found to be 87.2 nM. With `CCOC(=O)N=S(C)(=O)c1ccc(-c2cc(N3CCOCC3)nc3c(-c4ccn[nH]4)nccc23)cc1` (centres unmarked) [Example 1], the IC50 reads like this: under setting [1], 36.8 nM; under setting [2], 23.9 nM.

Turning to `C[S+]([O-])c1cc(N2CCOCC2)nc2c(-c3ccn[nH]3)nccc12` (centres unmarked) [Example 202, 4-(methylsulfinyl)-2-(morpholin-4-yl)-8-(1H-pyrazol-5-yl)-1,7-naphthyridine], the IC50 under setting [1] stood at 78.3 nM. Take `CS(=N)(=O)c1ccc(-c2cc(N3CCOCC3)nc3c(-c4ccn[nH]4)nccc23)cc1` (centres unmarked) [Example 2]: the concentration for half-maximal inhibition (IC50) under setting [1] came out at 95.2 nM and the IC50 under setting [2] came out at 38.3 nM. With `C[C@@H]1COCCN1c1cc(N=S(C)(=O)c2ccc(F)cc2)c2ccnc(-c3ccn[nH]3)c2n1` (stereo partly drawn) [Example 138, 4-{[(4-fluorophenyl)(methyl)oxido-λ^6-sulfanylidene]amino}-2-[(3R)-3-methylmorpholin-4-yl]-8-(1H-pyrazol-5-yl)-1,7-naphthyridine], the IC50 under setting [1] worked out at 29 nM. Turning to `C[C@@H]1COCCN1c1cc(N2CCN(S(C)(=O)=O)CC2)c2ccnc(-c3ccn[nH]3)c2n1` [Example 82, 2-[(3R)-3-methylmorpholin-4-yl]-4-[4-(methylsulfonyl)piperazin-1-yl]-8-(1H-pyrazol-5-yl)-1,7-naphthyridine], the half-maximal inhibitory concentration (IC50) under setting [1] came to 4.9 nM.

`c1cc(-c2nccc3c(-c4ccc5cc[nH]c5c4)cc(N4CCOCC4)nc23)[nH]n1` [Example 293, 4-(1H-indo1-6-yl)-2-(morpholin-4-yl)-8-(1H-pyrazol-5-yl)-1,7-naphthyridine]: the IC50 under setting [1] turned out to be 328 nM.

With `Cc1cc(-c2cc(N3CCOC[C@H]3C)nc3c(-c4ccn[nH]4)nccc23)cs1` [Example 234, 2-[(3R)-3-methylmorpholin-4-yl]-4-(5-methylthiophen-3-yl)-8-(1H-pyrazol-5-yl)-1,7-naphthyridine], the IC50 under setting [1] worked out at 29.2 nM. For `C[C@@H]1COCCN1c1cc(-c2ccccc2)c2ccnc(-c3cc[nH]n3)c2n1` [Example 27, 2-((R)-3-methylmorpholin-4-yl)-4-phenyl-8-(2H-pyrazol-3-yl)-[1,7]naphthyridine], the IC50 turned out to be 17.2 nM under setting [1] and 10.9 nM under setting [2].

Regarding `C[C@@H]1COCCN1c1cc(-c2ccn[nH]2)c2ccnc(-c3ccn[nH]3)c2n1` [Example 205, 2-[(3R)-3-methylmorpholin-4-yl]-4,8-di(1H-pyrazol-5-yl)-1,7-naphthyridine], the IC50 under setting [1] was found to be 49.3 nM. As to `C[C@@H]1COCCN1c1cc(C#N)c2ccnc(-c3ccn[nH]3)c2n1` [Example 35, 2-((R)-3-methylmorpholin-4-yl)-8-(-2H-pyrazol-3-yl]-[1,7]naphthyridine-4-carbonitrile], the IC50 runs as follows: under setting [1], 122 nM; under setting [2], 75.5 nM. In the same order, the values of `C[C@@H]1COCCN1c1cc(-c2ccc(S(C)(=O)=O)cc2)c2ccnc(-c3cc[nH]n3)c2n1` [Example 26, 4-(4-methanesulphonylphenyl)-2-((R)-3-methylmorpholin-4-yl)-8-(2H-pyrazol-3-yl)-[1,7]naphthyridine] are 15.6 nM and 6.36 nM.
